Source: ChEMBL document CHEMBL1681663, “Design and synthesis of novel tetrahydronaphthyl azoles and related cyclohexyl azoles as antileishmanial agents” (Bioorg Med Chem Lett, 2011)
Values after ≈ are worked out from the molar mass of the structure shown. Each block holds one compound with its values, some of them ahead of it. Active and inactive are the calls of the source. The rule behind the calls is not given here.

Key:
Leishmania donovani [1] = test: Antileishmanial activity against promastigotes of Leishmania donovani at 10 ug/ml; type: functional
[2] = Cytotoxicity against mouse J774A1 cells by MTT assay; type: cell-based, J774.A1
Leishmania donovani [3] = test: Antileishmanial activity against amastigotes of Leishmania donovani; type: functional, organism-based
[4] = (§1) Selectivity index, ratio of CC50 for mouse J774A1 cells to IC50 for amastigotes of Leishmania donovani; type: functional, J774.A1
Leishmania donovani [5] = test: Antileishmanial activity against amastigotes of Leishmania donovani at 10 ug/ml; type: functional, organism-based
Leishmania donovani [6] = test: Antileishmanial activity against Leishmania donovani infected in Hamster assessed as inhibition of parasites growth at 50 mg/kg, ip for 5 times; type: functional; conditions: for inhibition in vivo at 50 mg/kg: route intraperitoneal
J774.A1 = test: as §1; type: functional

Compound: O[C@H]1CCc2ccccc2[C@@H]1n1ccnn1 (racemic)
- inhibition at 10 µg/mL (Leishmania donovani [1]): 90.4%
- CC50 [2]: 35.6 µg/mL (≈ 165 µM)
- inhibition (Leishmania donovani [5]): inactive

Compound: FC(F)(F)c1ccc(O[C@H]2CCc3ccccc3[C@@H]2n2ccnc2)cc1 (racemic)
- inhibition at 10 µg/mL (Leishmania donovani [1]): 60%
- CC50 [2]: 52.5 µg/mL (≈ 146 µM)
- inhibition (Leishmania donovani [5]): inactive

Compound: O=[N+]([O-])c1ccc(O[C@H]2CCc3ccccc3[C@@H]2n2ccnc2)cc1 (racemic)
- inhibition at 10 µg/mL (Leishmania donovani [1]): 94.9%
- CC50 [2]: 21.4 µg/mL (≈ 63.9 µM)
- IC50 (Leishmania donovani [3]): 4.53 µg/mL (≈ 13.5 µM)
- Ratio CC50/IC50 [4]: 4.73

Compound: O=[N+]([O-])c1ccc(O[C@H]2CCc3ccccc3[C@@H]2n2ccnc2)c(C(F)(F)F)c1 (racemic)
- inhibition at 10 µg/mL (Leishmania donovani [1]): 91.2%
- CC50 [2]: 10.7 µg/mL (≈ 26.5 µM)
- IC50 (Leishmania donovani [3]): 1.59 µg/mL (≈ 3.94 µM)
- Ratio CC50/IC50 [4]: 6.73

Compound: O=[N+]([O-])c1ccc(O[C@H]2CCc3ccccc3[C@@H]2n2ccnc2)c(F)c1 (racemic)
- inhibition at 10 µg/mL (Leishmania donovani [1]): 100%
- CC50 [2]: 32.1 µg/mL (≈ 90.9 µM)
- IC50 (Leishmania donovani [3]): 6.52 µg/mL (≈ 18.5 µM)
- Ratio CC50/IC50 [4]: 4.92

Compound: O=[N+]([O-])c1cc(C(F)(F)F)ccc1O[C@H]1CCc2ccccc2[C@@H]1n1ccnc1 (racemic)
- inhibition at 10 µg/mL (Leishmania donovani [1]): 99.6%
- CC50 [2]: 20.1 µg/mL (≈ 49.8 µM)
- IC50 (Leishmania donovani [3]): 3.58 µg/mL (≈ 8.88 µM)
- Ratio CC50/IC50 [4]: 5.61

Compound: O=[N+]([O-])c1ccc(O[C@H]2CCc3ccccc3[C@@H]2n2ccnn2)cc1 (racemic)
- inhibition at 10 µg/mL (Leishmania donovani [1]): 99.6%
- CC50 [2]: > 100 µg/mL
- inhibition (Leishmania donovani [5]): inactive

Compound: O=[N+]([O-])c1ccc(O[C@H]2CCc3ccccc3[C@@H]2n2ccnn2)c(F)c1 (racemic)
- inhibition at 10 µg/mL (Leishmania donovani [1]): 100%
- CC50 [2]: > 100 µg/mL
- inhibition (Leishmania donovani [5]): inactive

Compound: FC(F)(F)c1ccc(O[C@H]2CCCC[C@@H]2n2ccnc2)cc1 (racemic)
- inhibition at 10 µg/mL (Leishmania donovani [1]): 99.8%
- inhibition (Leishmania donovani [5]): inactive

Compound: NC[C@@H]1O[C@H](O[C@H]2[C@@H](O)[C@H](O[C@@H]3[C@@H](O)[C@H](N)C[C@H](N)[C@H]3O[C@H]3O[C@H](CO)[C@@H](O)[C@H](O)[C@H]3N)O[C@@H]2CO)[C@H](N)[C@@H](O)[C@@H]1O [PAROMOMYCIN]
- inhibition at 10 µg/mL (Leishmania donovani [1]): 124%
- CC50 [2]: 53.3 µg/mL (≈ 86.6 µM)
- inhibition in vivo at 50 mg/kg (Leishmania donovani [6]): 46.7%
- IC50 (Leishmania donovani [3]): 24.8 µg/mL (≈ 40.3 µM)
- Ratio CC50/IC50 [4]: 2.15

Compound: sodium stibogluconate
- inhibition (Leishmania donovani [6]): 92.2%
- Ratio CC50/IC50 (J774.A1): 6.38

Now from value to compound, other results behind:

- IC50 (Leishmania donovani [3]): 2.15 µg/mL (≈ 7.04 µM)
Compound: O=[N+]([O-])c1ccc(O[C@H]2CCCC[C@@H]2n2ccnc2)c(F)c1 (racemic)
- inhibition at 10 µg/mL (Leishmania donovani [1]): 95.7%
- CC50 [2]: 14.2 µg/mL (≈ 46.7 µM)
- Ratio CC50/IC50 [4]: 6.62

- IC50 (Leishmania donovani [3]): > 50 µg/mL
Compound: O[C@H]1CCc2ccccc2[C@@H]1n1ccnc1 (racemic)
- inhibition at 10 µg/mL (Leishmania donovani [1]): 60%
- CC50 [2]: > 100 µg/mL
- Ratio CC50/IC50 [4]: 2

- IC50 (Leishmania donovani [3]): 0.64 µg/mL (≈ 1.71 µM)
Compound: Clc1ccc(Cl)c(CO[C@H]2CCc3ccccc3[C@@H]2n2ccnc2)c1 (racemic)
- inhibition at 10 µg/mL (Leishmania donovani [1]): 100%
- CC50 [2]: 22.3 µg/mL (≈ 59.6 µM)
- inhibition in vivo at 50 mg/kg (Leishmania donovani [6]): 83.3%
- Ratio CC50/IC50 [4]: 34.78

- IC50 (Leishmania donovani [3]): 1.34 µg/mL (≈ 3.95 µM)
Compound: Clc1cccc(CO[C@H]2CCc3ccccc3[C@@H]2n2ccnc2)c1 (racemic)
- inhibition at 10 µg/mL (Leishmania donovani [1]): 100%
- CC50 [2]: 15.5 µg/mL (≈ 45.6 µM)
- inhibition in vivo at 50 mg/kg (Leishmania donovani [6]): 32.1%
- Ratio CC50/IC50 [4]: 11.53

- IC50 (Leishmania donovani [3]): 3.01 µg/mL (≈ 8.86 µM)
Compound: Clc1cccc(CO[C@H]2CCc3ccccc3[C@@H]2n2ccnn2)c1 (racemic)
- inhibition at 10 µg/mL (Leishmania donovani [1]): 100%
- CC50 [2]: 30.2 µg/mL (≈ 88.9 µM)
- Ratio CC50/IC50 [4]: 10.03

- IC50 (Leishmania donovani [3]): 2.23 µg/mL (≈ 7.76 µM)
Compound: O=[N+]([O-])c1ccc(O[C@H]2CCCC[C@@H]2n2ccnc2)cc1 (racemic)
- inhibition at 10 µg/mL (Leishmania donovani [1]): 98.6%
- CC50 [2]: 8.27 µg/mL (≈ 28.8 µM)
- Ratio CC50/IC50 [4]: 3.7

- IC50 (Leishmania donovani [3]): 5.07 µg/mL (≈ 14.3 µM)
Compound: O=[N+]([O-])c1cc(C(F)(F)F)ccc1O[C@H]1CCCC[C@@H]1n1ccnc1 (racemic)
- inhibition at 10 µg/mL (Leishmania donovani [1]): 99%
- CC50 [2]: 22.1 µg/mL (≈ 62.3 µM)
- Ratio CC50/IC50 [4]: 4.36

- IC50 (Leishmania donovani [3]): 1.4 µg/mL (≈ 4.83 µM)
Compound: Clc1cccc(CO[C@H]2CCCC[C@@H]2n2ccnc2)c1 (racemic)
- inhibition at 10 µg/mL (Leishmania donovani [1]): 96.9%
- CC50 [2]: 12.8 µg/mL (≈ 43.9 µM)
- Ratio CC50/IC50 [4]: 9.1

- IC50 (Leishmania donovani [3]): 4.03 µg/mL (≈ 12.4 µM)
Compound: Clc1ccc(Cl)c(CO[C@H]2CCCC[C@@H]2n2ccnc2)c1 (racemic)
- inhibition at 10 µg/mL (Leishmania donovani [1]): 89.6%
- CC50 [2]: 27.2 µg/mL (≈ 83.5 µM)
- Ratio CC50/IC50 [4]: 6.73

- IC50 (Leishmania donovani [3]): 2.44 µg/mL (≈ 7.5 µM)
Compound: Clc1ccc(CO[C@H]2CCCC[C@@H]2n2ccnc2)c(Cl)c1 (racemic)
- inhibition at 10 µg/mL (Leishmania donovani [1]): 99.5%
- CC50 [2]: 3.43 µg/mL (≈ 10.5 µM)
- Ratio CC50/IC50 [4]: 1.41
